The results in this text go back to patent US5159080A, “Indole compounds, a process for their preparation, and pharmaceutical compositions containing them” (Madaus AG, priority 1988, dated 1992).

Each structure is given as a SMILES string. Read-outs that look alike come from different tables or passages of the source.

Experiment [1] is described as follows: Change of heart frequency and average blood pressure in narcotized rats (maximum effect over 2 hours). Format: in vivo. The following applies: Rattus norvegicus; for change in vivo at 1 mg/kg: 1 mg/kg i.v.; for change in vivo at 10 mg/kg: 10 mg/kg i.v.; for change in vivo at 20 mg/kg: 20 mg/kg i.v.; for change in vivo at 50 mg/kg: 50 mg/kg i.v.
A short description of experiment [2]: Lower active dose on intraduodenal administration, rat. Format: in vivo. Here is the method: (§1) Furthermore, this action could be found for the compounds according to the invention, in particular for SI-WG 350, where alternative methods of administration were employed and, on other species of experimental animals. In the case of intraduodenal administration to the rat and to the cat the lower active does is 1 mg. kg^31 1.

Experiment [3] in a line: Lower active dose on intraduodenal administration, cat. Format: in vivo. Here is the method:
as §1

Experiment [4] in a line: Blood pressure and heart rate after despinalization in rats. Format: in vivo, rat. The following applies: despinalized rats.
In another experiment the test system is guinea pig left auricles. Description: Isolated left auricles stimulated with 1 Hz, inotropic effect. The note with it: Cavia porcellus, read-out: Maximum effect in % of initial value, LEFT AURICLE INTROPIC; for Emax at 2 µg/mL: 2.0 μg/ml; for Emax at 10 µg/mL: 10.0 μg/ml; for Emax at 20 µg/mL: 20.0 μg/ml; for Emax at 4 µg/mL: 4.0 μg/ml. Here is the method:
(§2) The test process employed is described, inter alia, in: Staff of the Department of Pharmacology, University of Edinburgh (1970): Pharmacological Experiments on Isolated Preparation, Churchill Livingston, Edinburgh, London and New York, page 112.
(§3) Animals having a body weight of about 500 g, were used and were divided into groups of 4 animals each. The compounds to be tested were dissolved in tyrode solution/sodium chloride solution 50:50 v/v and the desired concentration adjusted in the bath liquid. The experiment was carried out in the known manner.

The test system of experiment [5] is guinea pig right auricles. Briefly: Isolated, spontaneously beating right auricles, chronotropic effect. The note with it: Cavia porcellus, read-out: Maximum effect in % of initial value, RIGHT AURICLE CHRONOTROPIC; for Emax at 2 µg/mL: 2.0 μg/ml; for Emax at 10 µg/mL: 10.0 μg/ml; for Emax at 20 µg/mL: 20.0 μg/ml; for Emax at 4 µg/mL: 4.0 μg/ml. Here is the method:
as §2, §3

The target in the next experiment is α-adrenoreceptor. Briefly: α-antagonistic effectiveness on blood vessel sections of beagles (pA2). Format: biochemical, beagle (dog). The following applies: beagle blood vessel sections, DL-noradrenaline, hemi-tartrates. The text has this: The compounds to be tested (in the form of the hemi-tartrates) were taken up in the tyrode solution, phentolamine serving as a reference substance (reference antagonist). As control, tyrode solution was used alone. The reference […] was DL-noradrenaline hydrochloride.
The preparation of blood vessel sections and further experimentation took place in a known manner. The quantitative evaluation and calculation took place according to the method of J. M. Van Rossum (Arch. int. Pharmacodyn., 143 (3-4), 299-300/1963) and H. O. Schild (pharmacol. Rev., 9 242/1957 . the results are, for example, summarized in the following Table: […]

A further experiment has as its system α2-receptors. Description: Interference on α2-receptors (receptor binding). The note with it: in competition with 3H-prazosine (so in the source).
The test system of another experiment is β-receptors. Briefly: Competition for β-receptors (receptor binding). The following applies: corresponding ligand.
The test system of experiment [6] is calcium-specific binding sites. Briefly: Competition for calcium-specific binding sites. The following applies: corresponding ligand.
Experiment [7] concerns sodium-specific binding sites. Briefly: Competition for sodium-specific binding sites. The following applies: corresponding ligand.
Where [8] appears, read: iv, maximum effect over 2 h, hemi-tartrate, read-out: BLOOD PRESSURE CHANGE AVERAGE PRESSURE (%).
The mark [9] stands for this setting: iv, maximum effect over 2 h, hemi-tartrate, read-out: CHANGE OF HEART FREQUENCY (%).
[10] abbreviates: iv, 2 mg/kg i.v., maximum effect over 2 h, hemi-tartrate, read-out: BLOOD PRESSURE CHANGE AVERAGE PRESSURE (%).
Setting [11] is: iv, 2 mg/kg i.v., maximum effect over 2 h, hemi-tartrate, read-out: CHANGE OF HEART FREQUENCY (%).
[12] abbreviates: iv, 5 mg/kg i.v., maximum effect over 2 h, hemi-tartrate, read-out: BLOOD PRESSURE CHANGE AVERAGE PRESSURE (%).
Setting [13] is: iv, 5 mg/kg i.v., maximum effect over 2 h, hemi-tartrate, read-out: CHANGE OF HEART FREQUENCY (%).

For the compound `CN1CC[C@@H]2CC(=O)c3[nH]c4ccccc4c3C[C@@H]2C1` (relative stereo) [SI-WG 350, 1,3,4,4a,5,7,12,12a-Octahydro-2-methyl-2H-pyrido-[3',4':4,5] cyclohept [1,2-b] indol-6-one], the change in vivo at 2 mg/kg was -19.2% in experiment [1] (2 mg/kg i.d. (intraduodenal), maximum effect, read-out: BLOOD PRESSURE CHANGE AVERAGE PRESSURE (%)); -7.2% in experiment [1] (2 mg/kg i.d. (intraduodenal), maximum effect, read-out: CHANGE OF HEART FREQUENCY (%)); -16.5% in [1] (setting [10]); -21.9% in experiment [1] (setting [11]). For the same compound, the change in vivo at 5 mg/kg in experiment [1] (5 mg/kg i.d. (intraduodenal), maximum effect, read-out: BLOOD PRESSURE CHANGE AVERAGE PRESSURE (%)) was -25.7%; in experiment [1] (5 mg/kg i.d. (intraduodenal), maximum effect, read-out: CHANGE OF HEART FREQUENCY (%)), -23%; in experiment [1] (setting [12]), -31.5%; in experiment [1] (setting [13]), -28.4%. Further, the change in vivo at 1 mg/kg was -15.8% in experiment [1] (setting [8]) and -14.5% in [1] (setting [9]). Besides, the lower active dose in [2] was determined as 1 mg/kg; in experiment [3] it was 1 mg. kg^31 1. Also, the “blood pressure reduction after despinalization” value in experiment [4] is on record as “blood pressure reduction”. The “heart rate decrease after despinalization” value in experiment [4] is “heart rate decrease”. Besides, the figures for the Emax at 2 µg/mL (in the experiment with guinea pig left auricles; in experiment [5]) were 16% and -25%, respectively. For the same compound, the figures for the Emax at 10 µg/mL (with guinea pig left auricles; in experiment [5]) were 17% and -31%, respectively. Moreover, the figures for the Emax at 20 µg/mL (with guinea pig left auricles; in experiment [5]) were 23% and -47%, respectively. The “PA2 ± s” value at α-adrenoreceptor came out at 6.88 ± 0.73. For the same compound, the “interference on α2-receptors” value in the experiment with α2-receptors is reported as “No interference”. The “competition for β-receptors” value with β-receptors is recorded as “absence of competition”. In addition, in experiment [6], the “competition for calcium-specific binding sites” value is reported as “absence of competition”. Further, the “competition for sodium-specific binding sites” value in [7] is listed as “absence of competition”.

With `COc1cc2[nH]c3c(c2c(OC)c1OC)C[C@@H]1CN(C)CC[C@@H]1CC3=O` (relative stereo) [SI-WG 587], in experiment [1] (setting [12]), the change in vivo at 5 mg/kg came out at 12.2%. In experiment [1] (setting [8]), the change in vivo at 10 mg/kg turned out to be 11.6%. Besides, in experiment [1] (setting [9]), the change in vivo at 10 mg/kg is -4.8%. In the experiment on guinea pig left auricles, the Emax at 4 µg/mL is 14.9%, the Emax at 10 µg/mL stood at 29.4% and the Emax at 20 µg/mL was found to be 31.8%. Besides, in experiment [5], the Emax at 4 µg/mL was -10.4%, the Emax at 10 µg/mL was -13.9% and the Emax at 20 µg/mL is -19.8%.

In the case of `CN1CC[C@@H]2CC(=O)c3[nH]c4ccc(C#N)cc4c3C[C@@H]2C1` (relative stereo) [SI-WG 600], the change in vivo at 2 mg/kg in [1] (setting [10]) was determined as 9.5%. Besides, the change in vivo at 5 mg/kg in [1] (setting [12]) was -6%; in experiment [1] (setting [13]) it was -8.9%. For the same compound, the change in vivo at 10 mg/kg in [1] (setting [8]) was 4.8%; in [1] (setting [9]) it was -9.4%. Further, the values for the Emax at 2 µg/mL (in the experiment with guinea pig left auricles; in experiment [5]) were 12.4% and -25.2%, respectively. Also, the Emax at 4 µg/mL with guinea pig left auricles is 23%; in [5], -32.7%. Besides, the Emax at 10 µg/mL in the experiment on guinea pig left auricles is 30%; in experiment [5], -49.1%.

In the case of `CC(=O)Nc1ccc2[nH]c3c(c2c1)C[C@@H]1CN(C)CC[C@@H]1CC3=O` (relative stereo) [SI-WG 604], in [1] (setting [8]), the change in vivo at 10 mg/kg is -10.7% and the change in vivo at 20 mg/kg is -15.6%. In addition, in the experiment with guinea pig left auricles, the Emax at 10 µg/mL is 9.8% and the Emax at 20 µg/mL was 8.2%. The Emax at 60 µg/mL in the experiment on guinea pig left auricles (60.0 μg/ml) was found to be 13.8%. Also, in [5], the Emax at 10 µg/mL is -10.2% and the Emax at 20 µg/mL was -15.6%. For the same compound, the Emax at 60 µg/mL in experiment [5] (60.0 μg/ml) is -24.7%.

Take `CN1CC[C@@H]2CC(=O)c3[nH]c4c(O)cccc4c3C[C@@H]2C1` (relative stereo) [SI-WG 625]: the change in vivo at 5 mg/kg in experiment [1] (setting [12]) was -9.4%. The change in vivo at 5 mg/kg in experiment [1] (setting [13]) was -8.4%. Further, in the experiment on guinea pig left auricles, the Emax at 4 µg/mL was -4.7% and the Emax at 10 µg/mL was -8.9%. In experiment [5], the Emax at 2 µg/mL was -13.8%, the Emax at 4 µg/mL is -17.4% and the Emax at 10 µg/mL was -26.3%.

For the compound `CC(=O)c1[nH]c2ccccc2c1CC1CN(C)CCC1=O` (stereo not shown) [SI-WG 331, 2-Acetyl-3-(N.methyl-4-'-piperidon-3'-ylmethyl)-indole], in [1] (setting [8]), the change in vivo at 20 mg/kg is -18.4% and the change in vivo at 50 mg/kg was -29.1%. In addition, in experiment [1] (setting [9]), the change in vivo at 20 mg/kg is -9.7% and the change in vivo at 50 mg/kg was -19.3%. In the experiment with guinea pig left auricles, the Emax at 2 µg/mL was 8%, the Emax at 10 µg/mL was determined as 14% and the Emax at 20 µg/mL was 31%. For the same compound, in [5], the Emax at 2 µg/mL was -7%, the Emax at 10 µg/mL was -12% and the Emax at 20 µg/mL was -23%.

As for `CN1CCC2=C(Cc3c([nH]c4ccccc34)C(=O)C2)C1` [SI-WG 334a, 1,3,4,5,7,12-hexahydro-2-methyl-2H-pyrido [3',4':4,5]-cyclohept [1,2-b] indol-6-one], the change in vivo at 2 mg/kg was -17.2% in experiment [1] (setting [10]) and -21.2% in experiment [1] (setting [11]). For the same compound, the change in vivo at 5 mg/kg in [1] (setting [12]) is -25.9%; in [1] (setting [13]) it was -19.6%. Moreover, the change in vivo at 10 mg/kg in [1] (setting [8]) was -30.1%; in experiment [1] (setting [9]), -20.8%. Moreover, the Emax at 2 µg/mL in the experiment on guinea pig left auricles was 26%; in [5], -14%. Also, the results for the Emax at 10 µg/mL (in the experiment on guinea pig left auricles; in experiment [5]) were 25% and -29%, respectively. Besides, the Emax at 20 µg/mL with guinea pig left auricles was 33%; in experiment [5], -43%.

On to `CN1CC=C2CC(=O)c3[nH]c4ccccc4c3CC2C1` (stereo not shown) [SI-WG 360, 1,3,5,7,12,12a-hexahydro-2-methyl-2H-pyrido [3',4':4,5]-cyclohept [1,2-b] indol-6-one], for which the results for the change in vivo at 2 mg/kg in experiment [1] (setting [10]) and in experiment [1] (setting [11]) were -10.3% and -10.7%, respectively. For the same compound, the change in vivo at 5 mg/kg is -23% in experiment [1] (setting [12]) and -14.3% in experiment [1] (setting [13]). Also, the results for the change in vivo at 10 mg/kg in experiment [1] (setting [8]) and in experiment [1] (setting [9]) were -34.2% and -22.2%, respectively. The Emax at 2 µg/mL with guinea pig left auricles is 17%; in experiment [5], -10%. The results for the Emax at 10 µg/mL (in the experiment with guinea pig left auricles; in experiment [5]) were 39% and -29%, respectively. Moreover, the Emax at 20 µg/mL in the experiment on guinea pig left auricles was 50%; in [5], -41%.
